Here are results for one compound from EP2208498B1, “PHARMACEUTICAL COMPOSITION COMBINING VARIOUS VENOTONIC AND VASOPROTECTIVE AGENTS FOR THE TREATMENT OF CHRONIC VENOUS INSUFFICIENCY” (priority 2007, dated 2009).

Data set [1] has as its system patients with chronic venous insufficiency. On the procedure:
A randomized, comparative clinical study was carried out wherein 150 patients with chronic venous insufficiency were included.
All patients were firstly treated with conventional therapy, combining compression with pharmacological treatment.
A full clinical history with physical examination was prepared for the patients, being assessed with Echo Doppler and CEAP classification, see Table 1.

The conditions of data set [2]: cited from earlier work.
Data set [3] has as its system haemorrhoidal crises. The conditions noted are these: 25 patients 1 500 mg per day calcium dobesilate; 26 patients 3000 mg per day flavonoid fraction of diosmine; cited from earlier work.
Where [4] appears, read: Final symptomatology data after two months of treatment, n=50 per group, initial 100%.

Compound `O=S(=O)(O)c1cc(O)ccc1O` [calcium dobesilate, Calcium dobesilate] yielded an Itch in data set [1] (Final symptomatology data after two months of treatment, n=50 per group, initial 80-88%) of 0. For the same compound, in data set [1] (setting [4]), the Cramps is 0, the Heaviness was determined as 0 and the Limb pain is 0. In data set [1] (Final symptomatology data after two months of treatment, n=50 per group, initial >9), the Doppler is recorded as below 9. Also, in data set [1] (human, in vivo), the “reported side effects such as: head ache and tiredness sensation” value was determined as 14 patients. Besides, in data set [2] (after oral administration), the plasma peak is 8 µg/mL and the “time of plasma peak” value is reported as “around 6 hours”. For the same compound, the Plasma half-life entry in data set [2] (in vivo) is given as “about 5 hours”. Moreover, in data set [2] (remaining dose), the “administered dose removed in feces” value is reported as 50%. Moreover, the “administered dose removed in urine” value in data set [2] (within the first 24 hours) was 50%. In addition, the “improvement in haemorrhoidal crises (in words)” value in data set [3] is recorded as “significant improvement”.
